Reference: patent US5512269A, “Method of treating retained pulmonary secretions” (priority 1993, dated 1996)

Columns and labels:
[1] = system: normal airway epithelium; experiment: Ussing chamber short circuit current (Isc) Cl- secretory response, normal airway epithelium primary cultures; format: cell-based, human
[2] = system: sheep airway surface liquid; settings: sheep model, W. Mentz et al.; cited from earlier work
[3] = system: Mycobacterium tuberculosis drug sensitive laboratory strain; format: cell-based; settings: for susceptibility of drug-sensitive laboratory strain to drug: streptomycin 6 μg/ml, isoniazid 0.2 μg/ml, rifampin 2 μg/ml, ethambutol 7.5 μg/ml
[4] = system: Mycobacterium tuberculosis 57778; format: cell-based; settings: for susceptibility of strain 57778 to drug: streptomycin 6 μg/ml, isoniazid 0.2 μg/ml, rifampin 2 μg/ml, ethambutol 7.5 μg/ml
[5] = system: Mycobacterium tuberculosis 65021; format: cell-based; settings: for susceptibility of strain 65021 to drug: streptomycin 6 μg/ml, isoniazid 0.2 μg/ml, rifampin 2 μg/ml, ethambutol 7.5 μg/ml
[6] = system: Mycobacterium tuberculosis 63169; format: cell-based; settings: for susceptibility of strain 63169 to drug: streptomycin 6 μg/ml, isoniazid 0.2 μg/ml, rifampin 2 μg/ml, ethambutol 7.5 μg/ml
[7] = system: CFT43 cell line (intracellular cAMP); settings: CFT43 cells, duramycin stimulation
Source text: (§1) 4. Mechanisms of Action: Preliminary studies were also done investigating possible mechanisms of action.

[8] = system: CFT43 cell line (phospholipase C, inositol phosphates); settings: CFT43 cells, duramycin stimulation
Source text: as §1

[9] = system: CF airway epithelium; settings: 10^-6 M
Source text: 1. Ussing Chamber Studies: The Cl^- secretory response to stimulation of normal and CF airway epithelium was studied under short circuit (Isc) conditions employing tissues mounted in Ussing chambers. Ussing chambers are well known in the art and the manner of their use in the present example would be readily apparent to one skilled in the art.

[10] = system: canine trachea airway surface liquid; settings: dog
Procedure: 1. The Animal Model: The model developed employed 30 kg male dogs that were anesthetized with intravenous pentobarbital and maintained on a intravenous infusion of normal saline at 75 cc/hour. The dogs were intubated. Ventilatory support was provided by a Harvard™ piston pump. Adequate ventilation and oxygenation were documented by arterial blood gas studies. Peak airway pressures (PAP) were measured and continuous monitoring of hemoglobin saturation was accomplished by pulse oximetry.
Drug and vehicle were delivered through the endotracheal tube. The drug was nebulized employing a Pulmo-Aid™ Compressor and a DeVilbiss™ nebulizer. The drug (50 μM; 3 ml) in a saline vehicle or the saline vehicle alone (control) was nebulized for 6 minutes during which 0.7 ml thereof was delivered to the animal. […] After 6 minutes, a clean and dry nebulizer was exchanged for the test nebulizer containing the drug or vehicle. The investigators were blinded as to whether drug or vehicle was given.
2. Measurements of airway fluid: Airway liquid measurements were made by applying dry preweighed filter paper to the cartilaginous portions of the airway for 20 seconds. This was accomplished employing transbronchial biopsy forceps to grasp the papers. The forceps and papers were stored in plastic catheters. Sampling the airway liquid was accomplished by first inserting the bronchoscope through the endotracheal tube. Care was taken not to allow contact between mucosa and the bronchoscope. The catheter containing the biopsy forceps and filter papers was introduced into the airway lumen through the channel in the bronchoscope. The biopsy forceps were then pushed out of the catheter and the filter papers gently applied to the mucosa. After 20 seconds the biopsy forceps and filter papers were pulled back into the catheter and removed through the bronchoscope for weighing. The filter papers were accessed for weighing by again pushing the forceps holding the filter paper out of the catheter. In order to account for evaporative losses from the filter papers when exposed to room air, the time required to place the papers on the scales and perform the initial weighing was recorded. Three subsequent weighings over time were then made. A regression line was calculated. The weight of the filter papers at time zero, that is when they were maximally wet, was defined as the time when the filter papers were pushed out of the catheter after having been applied to the airway mucosa. The amount of fluid on the filter paper was taken as the difference between the dry weight of the papers and their weight at time zero. Each set of samples to be compared were further corrected for differences in the initial weight of the dry filter papers.
The goal of the first protocol was to study the effects on airway surfaces liquid of (1) repeatedly sampling the airway, and (2) nebulizing the normal saline vehicle.
Protocol 1 required, immediately prior to conducting the test studies, weighing and loading the filter papers into catheters. Ten separate catheter-forceps-filter paper set-ups were available. Ten measurements of airway liquid were then made in different areas of the trachea over a thirty-minute period, with measurements made at three minute intervals. The catheters were then reloaded and the saline vehicle nebulized onto the airway. Ten more measurements of airway surface liquid were then made over another thirty minute period.
Protocol 2 required sampling the airway every four minutes to obtain 30 measurements of airway liquid. This required reloading the 10 catheters twice during each experiment. Each reloading required 20 minutes. This protocol allowed the airway to be sampled over 160 minutes. Drug and vehicle administration were separated by one week in any one animal.

Question: With Nc1ncnc2c1ncn2[C@@H]1O[C@H](COP(=O)(O)OP(=O)(O)OP(=O)(O)O)[C@@H](O)[C@H]1O [ATP, reference compound] as the molecule, how does the “time course of Cl- secretory response (Isc)” value ([1]; comparison agonist) read?
Answer: Its value is “rapid onset of action and a rapid return to the baseline current”.

Question: For N=C(N)NC(=O)c1nc(Cl)c(N)nc1N [amiloride], which “increase in airway fluid after amiloride treatment” value [2] is on record?
Answer: The value was about 50%.

Question: What does the source list for CC[C@@H](CO)NCCN[C@@H](CC)CO [ethambutol]?
Answer: susceptibility of drug-sensitive laboratory strain to drug [3]: sensitive; susceptibility of strain 57778 to drug [4]: sensitive; susceptibility of strain 65021 to drug [5]: partially resistant; susceptibility of strain 63169 to drug [6]: sensitive

Question: With NNC(=O)c1ccncc1 [isoniazid] as the molecule, how does the “susceptibility of drug-sensitive laboratory strain to drug” value [3] read?
Answer: The value was “sensitive”.

Question: What about the “susceptibility of strain 57778 to drug” value [4] of the same molecule?
Answer: The value was “resistant”.

Question: And the “susceptibility of strain 65021 to drug” value [5]?
Answer: The value was “resistant”.

Question: What about the “susceptibility of strain 63169 to drug” value [6] of the same molecule?
Answer: The value was “resistant”.

Question: For CO[C@H]1/C=C/O[C@@]2(C)Oc3c(C)c(O)c4c(O)c(c(/C=N/N5CCN(C)CC5)c(O)c4c3C2=O)NC(=O)/C(C)=C\C=C\[C@H](C)[C@H](O)[C@@H](C)[C@@H](O)[C@@H](C)[C@H](OC(C)=O)[C@@H]1C [rifampin], which “susceptibility of drug-sensitive laboratory strain to drug” value [3] is on record?
Answer: Its value is “sensitive”.

Question: What about the “susceptibility of strain 57778 to drug” value [4] of the same molecule?
Answer: Its value is “resistant”.

Question: What about the “susceptibility of strain 65021 to drug” value [5] of the same molecule?
Answer: The value was “resistant”.

Question: And the “susceptibility of strain 63169 to drug” value [6]?
Answer: The value was “resistant”.

Question: Which “susceptibility of drug-sensitive laboratory strain to drug” value [3] does the source give for [H]/N=C(/N)N[C@H]1[C@H](O)[C@@H](O)[C@H](O[C@@H]2O[C@@H](C)[C@](O)(C=O)[C@H]2O[C@@H]2O[C@@H](CO)[C@H](O)[C@@H](O)[C@@H]2NC)[C@@H](N/C(N)=N\[H])[C@@H]1O [streptomycin] here?
Answer: Its value is “sensitive”.

Question: What about the “susceptibility of strain 57778 to drug” value [4] of the same molecule?
Answer: Its value is “resistant”.

Question: And the “susceptibility of strain 65021 to drug” value [5]?
Answer: The value was “resistant”.

Question: What about the “susceptibility of strain 63169 to drug” value [6] of the same molecule?
Answer: Its value is “sensitive”.

Question: With duramycin as the molecule, how does the “intracellular cAMP levels” value [7] read?
Answer: The value was “did not cause intracellular cAMP levels to rise”.

Question: What about the “inositol phosphates (IPs) produced” value [8] of the same molecule?
Answer: The value was “no detectable amounts of IPs”.

Question: And the “activity on growth (growth index over 12 days), drug-sensitive laboratory strain” value ([3]; 100 μM duramycin)?
Answer: The value was “less active in vitro than streptomycin, isoniazid, rifampin, or ethambutol”.

Question: What about the “Cl- secretory response (change in Isc) in CF tissue relative to normal tissue” value [9] of the same molecule?
Answer: Its value is “approximately twice”.

Question: What about the “Cl- secretory response in CF tissue” value ([9]; five CF tissues) of the same molecule?
Answer: The value was “significant Cl^- secretory response”.

Question: What about the “activity on growth (growth index over 12 days), strain 57778” value ([4]; 100 μM duramycin) of the same molecule?
Answer: Its value is “equally as effective as ethambutol”.

Question: What about the “peak Isc (Cl- current) after duramycin” value ([1]; 10^-6 M duramycin, normal tissues after amiloride and forskolin (10 μM), baseline 20 μA/cm^2 after amiloride) of the same molecule?
Answer: The value was 50 μA/cm^2.

Question: What about the “Cl- secretory response in normal tissue” value ([1]; 10^-6 M, seven normal tissues) of the same molecule?
Answer: Its value is “significant Cl^- secretory response”.

Question: What about the “Isc response to duramycin, control bathing solution” value ([1]; 10^-6 M, solution containing both Na+ and Cl-) of the same molecule?
Answer: The value was “responded by increasing the Isc”.

Question: And the “Isc response to duramycin, Cl- free bathing solution” value ([1]; 10^-6 M, solution without Cl-)?
Answer: The value was “markedly attenuated response”.

Question: And the “Isc response to duramycin, Na+ free bathing solution” value ([1]; 10^-6 M, solution without Na+)?
Answer: The value was “responded by increasing the Isc”.

Question: What about the “concentration giving maximal response” value ([1]; dose response study) of the same molecule?
Answer: Its value is 10^-6 M.

Question: And the ED50 ([1]; dose response study, Isc response)?
Answer: Its ED50 is 300 nM.

Question: What about the “duration of increase in Isc (Cl- secretory response)” value ([1]; in some instances) of the same molecule?
Answer: The value was over 1 h.

Question: And the “activity on growth (growth index over 12 days), strain 65021” value ([5]; 100 μM duramycin)?
Answer: The value was “significantly more activity against this strain than any of the four traditional anti-tuberculosis drugs tested”.

Question: What about the “increase in amount of fluid recovered over baseline, Protocol 2” value ([10]; 160 minutes, vehicle first then duramycin one week later) of the same molecule?
Answer: The value was “several-fold increase”.

Question: And the “return of airway surface liquid to baseline” value ([10]; Protocol 1)?
Answer: Its value is “did not return to baseline even two hours following its administration”.

Question: And the “surface airway liquid after vehicle one week following duramycin” value ([10]; Protocol 2, duramycin given first)?
Answer: The value was “remained elevated”.

Question: What about the “amount of fluid recovered from the airway, Protocol 1” value ([10]; nebulized duramycin, 30 minute measurement period) of the same molecule?
Answer: The value was “marked and sustained increase”.

Question: And the “increase in airway surface liquid recovered compared to vehicle controls” value ([10]; vehicle first, p=0.0179 (paired), p=0.0335 (unpaired), n=6)?
Answer: Its value is “significant”.

Question: What about the “average change in amount of fluid recovered” value ([10]; versus vehicle) of the same molecule?
Answer: The value was “doubling”.

Question: What about the “activity on growth (growth index over 12 days), strain 63169” value ([6]; 100 μM duramycin) of the same molecule?
Answer: The value was “approximately equal to that of the two drugs now known to be effective against this strain”.
